Experimental data as given in ChEMBL document CHEMBL4665709, “Rational Avoidance of Protease Cleavage Sites and Symmetrical End-Tagging Significantly Enhances the Stability and Therapeutic Potential of Antimicrobial Peptides” (J Med Chem, 2020).
Where a SMILES comes first, the peptide text is derived from it.

Columns and labels:
Trypsin = Trypsin (Homo sapiens, UniProt P07477+P07478+P35030); experiment: Stability of compound assessed as trypsin (unknown origin)-mediated drug degradation after 8 hrs by RP-HPLC analysis; assay type: ADME, protein assay
Staphylococcus aureus = experiment: Antibacterial activity against Staphylococcus aureus ATCC 29213 after 18 to 24 hrs in presence of 8 uM Zn2+ by CLSI-based broth microdilution method; assay type: functional; conditions: time hrs 18-24
Escherichia coli = experiment: Antibacterial activity against Escherichia coli ATCC 25922 after 18 to 24 hrs in presence of 1 mM Mg2+ by CLSI-based broth microdilution method; assay type: functional; conditions: time hrs 18-24

Which results are given for `CC[C@H](C)[C@H](N)C(=O)N[C@H](C(=O)N[C@H](C(=O)N[C@@H](CS)C(=O)N[C@@H](CCCNC(=N)N)C(=O)N[C@@H](CCCCN)C(=O)N1CCC[C@H]1C(=O)N[C@H](C(=O)N[C@H](C(=O)N[C@@H](CS)C(=O)N[C@@H](CCCNC(=N)N)C(=O)N[C@@H](CCCCN)C(=O)N1CCC[C@H]1C(=O)N[C@H](C(=O)N[C@H](C(=O)N[C@@H](CS)C(=O)N[C@@H](CCCNC(=N)N)C(=O)N[C@@H](CCCCN)C(=O)N1CCC[C@H]1C(=O)N[C@H](C(=O)N[C@H](C(=O)N[C@@H](CS)C(=O)N[C@@H](CCCNC(=N)N)C(=O)N[C@@H](CCCCN)C(=O)N1CCC[C@H]1C(=O)N[C@H](C(=O)N[C@H](C(=O)N[C@H](C(N)=O)[C@@H](C)CC)[C@@H](C)CC)[C@@H](C)CC)[C@@H](C)CC)[C@@H](C)CC)[C@@H](C)CC)[C@@H](C)CC)[C@@H](C)CC)[C@@H](C)CC)[C@@H](C)CC)[C@@H](C)CC` (H-IIICRKPIICRKPIICRKPIICRKPIII-NH2)?
Stabilty (Trypsin): Stable; MIC (Staphylococcus aureus): 8 µM; MIC (Escherichia coli): 4 µM
